The values that follow come from patent publication US20170173069A1, “METHODS OF NUCLEOTIDE AND GENE DELIVERY USING MEMBRANE TRANSPORT MECHANISMS” (The Charlotte Mecklenburg Hospital Authority d/b/a …, priority 2015, published 2017).

In this data set the test system is dystrophin exon 23. The data set is described as follows: Dystrophin expression (immunostaining of muscle sections) in mdx dystrophic mice after antisense oligonucleotide PMOE23. The data set is classed as in vivo, mouse. How it is done: The mdx dystrophic mouse contains a nonsense point mutation in the dystrophin exon 23. PMOE23 (5′[…]-3′) (SEQ ID NO:1) oligo binds to the exon-intron boundary of the dystrophin exon 23, resulting in the skip of the exon 23 and restoration of the reading frame and the expression of the dystrophin protein. The mdx mice are treated with antisense oligonuleotide PMOE23 (5′[…]-3′) (SEQ ID NO:1) via intravenous injection and the muscles are examined 2 weeks later. Saline treated, mouse was treated with saline without PMO as control. PMO only, mouse was treated with single dose 1 mg PMO only. PMO+Repa, mouse was treated with single dose 1 mg PMO and Repaglinide. 100 microgram Repaglinide was gavaged before the injection of PMO. Quad, quadriceps. Blue are DAPI stained nuclei; red staining representing membrane localized dystrophin expression.
A comparison of levels of dystrophin expression after treatment with morpholino antisense oligonucleotide PMOE23 and Eicosapentaenoic acid (EPA)-linked PMOE23 in 4-6 weeks old mdx dystrophic mice. […] PMOE23 (5′[…]-3′) (SEQ ID NO:1) oligo binds to the exon-intron boundary of the dystrophin exon 23, resulting in the skip of the exon 23 and restoration of the reading frame and the expression of the dystrophin protein. […] 6 μm sections were cut from freshly frozen muscles and stained with rabbit anti-dystrophin antibody P7 and detected with goat-anti-rabbit Ig-Alexa 594. […] Images were taken by Olympus BX52 fluorescence microscope.
A comparison of levels of dystrophin expression after treatment with morpholino antisense oligonucleotide PMOE23 and PMOE23 in combination with the use of insulin in 4-6 weeks old mdx dystrophic mice. […] PMOE23 (5′[…]-3′) (SEQ ID NO:1) oligo binds to the exon-intron boundary of the dystrophin exon 23, resulting in the skip of the exon 23 and restoration of the reading frame and the expression of the dystrophin protein. […] 6 μm sections were cut from freshly frozen muscles and stained with rabbit anti-dystrophin antibody P7 and detected with goat-anti-rabbit Ig-Alexa 594. […] Images were taken by Olympus BX52 fluorescence microscope.

Take “PMO only: morpholino antisense oligonucleotide PMOE23, 5′GGCCAAACCTCGGCTTACCTGAAAT-3′ (SEQ ID NO:1), skips dystrophin exon 23 (all phosphorodiamidate morpholino (PMO))”: the “number of dystrophin positive fibers / membrane localized dystrophin expression in muscle” value was “only a few muscle fibers expressing weak dystrophin” (Example 1, FIG. 1: mdx mice, single dose 1 mg PMO intravenous, 100 microgram Repaglinide gavaged before PMO, muscles examined 2 weeks later); “only a few muscle fibers expressing weak dystrophin” (Example 2, FIG. 2: 4-6 weeks old mdx mice, single intravenous dose 1 mg PMOE23 or 0.7 mg EPA-linked PMOE23, muscles examined 2 weeks later, antibody P7); “only a few muscle fibers expressing weak dystrophin” (Example 3, FIG. 3: 4-6 weeks old mdx mice, single intravenous dose 1 mg PMOE23, 0.5 unit Insulin subcutaneously immediately after PMO, muscles examined 2 weeks later, antibody P7).
